Results from patent US5346913A, “N-iodopropargyl hydantoin compounds, compositions, preparation, and use as antimicrobial agents” (Rohm and Haas Company, priority 1992, dated 1994).
Converted amounts (≈) assume the structure as drawn. Read-outs that look alike come from different tables or passages of the source.

How the values were obtained:
[1] = test system: Pellicularia filamentosa (f. sp. sasiki); test: whole plant or invertebrate; format: in vivo; settings: 120 h; read-out: % Control RSB
[2] = test system: Pseudoperonospora cubensis; test: whole plant or invertebrate; format: in vivo; settings: for pest or weed control at 200 ppm: Pseudoperonospora cubensis, in Cucumis sativus, 168 h, read-out: % Control CDM
Aspergillus niger = test: MIC, broth two-fold serial dilution test, Aspergillus niger (Anig); format: cell-based; settings: TSB
Excerpt: (§1) The compounds identified with a prime (') were the non-iodo analogues of the invention compounds, i.e., the compounds of formula III or IV. All data are reported in ppm of active ingredient required to control the respective organism. The indication "No In." means that the compound had no inhibitory activity at 500 ppm which was the maximum tested, and so if the "No In." compound were active, the minimum inhibitory concentration would be above 500 ppm. The comparative tests were not run side-by-side, but were run on different days using the same methods. […] A minimum inhibitory concentration (MIC) value is obtained using a broth, two-fold serial dilution test performed as follows: […] A volume of the stock solution is dispensed into culture media to give an initial starting test concentration of the compound of 500 ppm or 250 ppm. When the test is ready to be done, each vessel in the dilution series, except the first vessel, contains an equal volume of compound free broth. The first vessel contains twice the volume of broth with the starting concentration of test compound. One half of the broth from the first vessel is transferred to the second vessel. After being mixed, one half the resulting volume is removed from the second vessel and transferred to the third vessel. […] Each vessel is then inoculated with a cell suspension of the appropriate test organism. Bacteria are grown in broth and fungi on agar […] is grown in cooling tower media for a time and at a temperature appropriate to the species being tested. At the end of the growth period, the broth is vortexed to disperse the cells. In the case of fungi, the spores are harvested by pipetting water onto the slant and dislodging the spores with a sterile loop. The cell/spore suspension is standardized by controlling incubation time, temperature, and the volume of the diluent. The suspension is then used to inoculate the vessels containing the broth compound. The vessels are then incubated at the appropriate temperature. After the incubation, the vessels are examined for growth/no growth. The MIC is defined as the lowest concentration of compound that results in complete inhibition of growth of the test organism. INDUSTRIAL FUNGI: Aspergillus niger (A.n); Aureobasidium pullulans (A.p)

[3] = test system: Erysiphe graminis (f. sp. tritici); test: whole plant or invertebrate; format: in vivo; settings: for pest or weed control at 50 ppm / pest or weed control at 200 ppm: Blumeria graminis, read-out: % Control WPM
Staphylococcus aureus = test: MIC, broth two-fold serial dilution test, Staphylococcus aureus (Saur); format: cell-based
Excerpt: as §1, with “BACTERIA: Pseudomonas fluorescens (Ps.fl), gram negative; Pseudomonas aerugenosa (Ps.ae), gram negative; Escherichia coli (E.c), gram negative; and Staphylococcus aureus (S.a), gram positive.” for “INDUSTRIAL FUNGI: Aspergillus niger (A.n); Aureobasidium pullulans (A.p)”

[4] = test system: Puccinia recondita (f. sp. tritici Races PKB and PLD); test: whole plant or invertebrate; format: in vivo; settings: for pest or weed control at 50 ppm / pest or weed control at 200 ppm: Puccinia recondita, 240 h, read-out: % Control WLR
Pseudomonas aerugenosa = test: MIC, broth two-fold serial dilution test, Pseudomonas aerugenosa (Psae); format: cell-based
Excerpt: as §1, with “BACTERIA: Pseudomonas fluorescens (Ps.fl), gram negative; Pseudomonas aerugenosa (Ps.ae), gram negative; Escherichia coli (E.c), gram negative; and Staphylococcus aureus (S.a), gram positive.” for “INDUSTRIAL FUNGI: Aspergillus niger (A.n); Aureobasidium pullulans (A.p)”

Piricularia oryzae = test: whole plant or invertebrate; format: in vivo; settings: Pyricularia oryzae, read-out: % Control RB
Escherichia coli = test: MIC, broth two-fold serial dilution test, Escherichia coli (Ecol); format: cell-based
Excerpt: as §1, with “BACTERIA: Pseudomonas fluorescens (Ps.fl), gram negative; Pseudomonas aerugenosa (Ps.ae), gram negative; Escherichia coli (E.c), gram negative; and Staphylococcus aureus (S.a), gram positive.” for “INDUSTRIAL FUNGI: Aspergillus niger (A.n); Aureobasidium pullulans (A.p)”

Phytophthora infestans = test: whole plant or invertebrate; format: in vivo; settings: for pest or weed control at 200 ppm / pest or weed control at 50 ppm: Phytophthora infestans, in Solanum lycopersicum, 96 h; for pest or weed control at 50 ppm: read-out: % Control TLB, secondary greenhouse test (Table 5), 50 ppm
TLB, CDM, WLR, SNW, WPM = settings: in vivo
Septoria nodorum = settings: in vivo
[5] = read-out: % Control TLB, greenhouse test (Table 4), 200 ppm
[6] = read-out: % Control TLB, secondary greenhouse test (Table 5), 200 ppm

| Structure (SMILES) | MIC (Aspergillus niger) | MIC (Staphylococcus aureus; M9G) | MIC (Staphylococcus aureus; TSB) | MIC (Pseudomonas aerugenosa; M9G) | MIC (Pseudomonas aerugenosa; TSB) | MIC (Escherichia coli; M9G) | MIC (Escherichia coli; TSB) | further results |
| --- | --- | --- | --- | --- | --- | --- | --- | --- |
| CC(C)(C#CI)N1CC(=O)N(c2cc(Cl)cc(Cl)c2)C1=O [Compound 13, 1-(1,1-dimethyl-3-iodo-2-propynyl)-3-(3,5-dichlorophenyl)hydantoin] | 8 mg/L (≈ 18.3 µM) | > 500 mg/L | > 500 mg/L | > 500 mg/L | > 500 mg/L | > 500 mg/L | > 500 mg/L | pest or weed control at 50 ppm [1]: 50%; pest or weed control at 200 ppm [1]: 75%; pest or weed control at 200 ppm [2]: 80%; pest or weed control at 50 ppm [3]: 50%; pest or weed control at 200 ppm [3]: 75%; pest or weed control at 50 ppm [4]: 50%; pest or weed control at 200 ppm [4]: 90%; pest or weed control at 50 ppm (Piricularia oryzae): 50%; pest or weed control at 200 ppm (Piricularia oryzae): 50%; pest or weed control at 200 ppm (Phytophthora infestans; [5]): 70%; pest or weed control at 50 ppm (Phytophthora infestans): 0%; pest or weed control at 200 ppm (Phytophthora infestans; [6]): 50% |
| CCCCN1C(=O)N(CC#CI)C(C)(C)C1=O [Compound 9, 1-(3-iodo-2-propynyl)-3-n-butyl-5,5-dimethylhydantoin] | 2 mg/L (≈ 5.74 µM) | 4 mg/L (≈ 11.5 µM) | 16 mg/L (≈ 46 µM) | 64 mg/L (≈ 184 µM) | 500 mg/L (≈ 1440 µM) | 16 mg/L (≈ 46 µM) | 500 mg/L (≈ 1440 µM) |  |
| C#CCN1C(=O)N(Cc2ccccc2)C(C)(C)C1=O [Compound 14, 1-benzyl-3-(propyn-2-yl)-5,5-dimethylhydantoin, reference compound] | > 500 mg/L | > 500 mg/L | > 500 mg/L | > 500 mg/L | > 500 mg/L | > 500 mg/L | > 500 mg/L |  |
| CCCCCCCCN1C(=O)N(CC#CI)C(C)(C)C1=O [Compound 10, 1-(3-iodo-2-propynyl)-3-n-octyl-5,5-dimethylhydantoin] | 4 mg/L (≈ 9.89 µM) | 2 mg/L (≈ 4.95 µM) | 4 mg/L (≈ 9.89 µM) | 125 mg/L (≈ 309 µM) | > 500 mg/L | 250 mg/L (≈ 618 µM) | > 500 mg/L |  |
| C#CCN1C(=O)N(c2cc(Cl)cc(Cl)c2)C(=O)C1C (centres unmarked) [Compound 1', 1-(2-propynyl)-3-(3,5-dichlorophenyl)-5-methylhydantoin, reference compound] | > 500 mg/L | > 500 mg/L | > 500 mg/L | > 500 mg/L | > 500 mg/L | > 500 mg/L | > 500 mg/L |  |
| O=C1CNC(=O)N1CC#CI [Compound 15, 3-(3-iodo-2-propynyl)-hydantoin] | 8 mg/L (≈ 30.3 µM) | 64 mg/L (≈ 242 µM) | 125 mg/L (≈ 473 µM) | 250 mg/L (≈ 947 µM) | 500 mg/L (≈ 1890 µM) | 64 mg/L (≈ 242 µM) | 64 mg/L (≈ 242 µM) |  |
| CC1(C)C(=O)N(CC#CI)C(=O)N1Cc1ccccc1 [Compound 14] | 4 mg/L (≈ 10.5 µM) | > 500 mg/L | 64 mg/L (≈ 167 µM) | > 500 mg/L | > 500 mg/L | 125 mg/L (≈ 327 µM) | 250 mg/L (≈ 654 µM) |  |
| CC1(C)C(=O)N(Cc2ccccc2)C(=O)N1CC#CI [Compound 8] | < 0.25 mg/L | 16 mg/L (≈ 41.9 µM) | 16 mg/L (≈ 41.9 µM) | 32 mg/L (≈ 83.7 µM) | 125 mg/L (≈ 327 µM) | 64 mg/L (≈ 167 µM) | 125 mg/L (≈ 327 µM) | pest or weed control at 50 ppm [1]: 50%; pest or weed control at 200 ppm [1]: 75%; pest or weed control at 50 ppm [3]: 0%; pest or weed control at 200 ppm [3]: 50%; pest or weed control at 50 ppm [4]: 80%; pest or weed control at 200 ppm [4]: 90%; pest or weed control at 50 ppm (Piricularia oryzae): 50%; pest or weed control at 200 ppm (Piricularia oryzae): 50%; pest or weed control at 50 ppm (Phytophthora infestans): 50%; pest or weed control at 200 ppm (Phytophthora infestans; [6]): 50% |
| CC1(C)C(=O)N(c2cc(Cl)cc(Cl)c2)C(=O)N1CC#CI [Compound 6, 1-(3-iodo-2-propynyl)-3-(3,5-dichlorophenyl)-5,5-dimethylhydantoin] | 1 mg/L (≈ 2.29 µM) | 8 mg/L (≈ 18.3 µM) | 2 mg/L (≈ 4.58 µM) | > 500 mg/L | > 500 mg/L | > 500 mg/L | > 500 mg/L | percent disease control CDM ([2]; in vivo): 100.0%; percent disease control Average (TLB, CDM, WLR, SNW, WPM): 77.6%; percent disease control WPM ([3]; in vivo): 68.0%; percent disease control WLR ([4]; in vivo): 82.0%; percent disease control SNW (Septoria nodorum): 68.0%; percent disease control TLB (Phytophthora infestans; advanced greenhouse test (Table 6), 0.25 kg a.i./ha): 70.0% |
| CC1C(=O)N(c2cc(Cl)cc(Cl)c2)C(=O)N1CC#CI (centres unmarked) [Compound 1] | 0.5 mg/L (≈ 1.18 µM) | > 500 mg/L | > 500 mg/L | > 500 mg/L | > 500 mg/L | > 500 mg/L | > 500 mg/L | pest or weed control at 50 ppm [1]: 50%; pest or weed control at 200 ppm [1]: 75%; pest or weed control at 200 ppm [2]: 90%; pest or weed control at 50 ppm [3]: 0%; pest or weed control at 50 ppm [4]: 50%; pest or weed control at 200 ppm [4]: 80%; pest or weed control at 50 ppm (Piricularia oryzae): 50%; pest or weed control at 200 ppm (Piricularia oryzae): 50%; pest or weed control at 200 ppm (Phytophthora infestans; [5]): 0%; pest or weed control at 50 ppm (Phytophthora infestans): 75%; pest or weed control at 200 ppm (Phytophthora infestans; [6]): 95% |
| C#CCN1C(=O)N(CC#C)C(C)(C)C1=O [Compound 11, 1,3-bis-(2-propynyl)-5,5-dimethylhydantoin, reference compound] | > 500 mg/L | > 500 mg/L | > 500 mg/L | > 500 mg/L | > 500 mg/L | > 500 mg/L | > 500 mg/L |  |
| C#CCN1C(=O)NC(C)(C)C1=O [Compound 12, 3-(2-propynyl)-5,5-dimethylhydantoin, reference compound] | > 500 mg/L | > 500 mg/L | > 500 mg/L | > 500 mg/L | > 500 mg/L | > 500 mg/L | > 500 mg/L |  |
| O=C1CN(CC#CI)C(=O)N1c1cc(Cl)cc(Cl)c1 [Compound 7, 1-(3-iodo-2-propynyl)-3-(3,5-dichlorophenyl)hydantoin] | 1 mg/L (≈ 2.44 µM) | 16 mg/L (≈ 39.1 µM) | 8 mg/L (≈ 19.6 µM) | > 500 mg/L | > 500 mg/L | > 500 mg/L | > 500 mg/L | pest or weed control at 200 ppm [1]: 50%; pest or weed control at 200 ppm [2]: 50%; pest or weed control at 50 ppm [3]: 0%; pest or weed control at 50 ppm [4]: 50%; pest or weed control at 50 ppm (Piricularia oryzae): 50%; pest or weed control at 200 ppm (Piricularia oryzae): 50%; pest or weed control at 200 ppm (Phytophthora infestans; [5]): 90%; pest or weed control at 50 ppm (Phytophthora infestans): 50%; pest or weed control at 200 ppm (Phytophthora infestans; [6]): 90% |
| C#CCN1C(=O)N(Cc2ccccc2)C(=O)C1(C)C [Compound 8, 3-benzyl-1-propargyl-5,5-dimethylhydantoin, reference compound] | > 500 mg/L | > 500 mg/L | > 500 mg/L | > 500 mg/L | > 500 mg/L | > 500 mg/L | > 500 mg/L |  |
